Results published in PMC3179182 (Bioorganic & medicinal chemistry letters, 2010).

Legend:
[1] = system: mGlu5; assay: mGlu5 assays; type: cell-based; settings: mode of mGlu5 pharmacology (NAM, PAM, Ago-PAM, Part. Antag., Inactive)
[2] = molecular target: T1, mGlu5 (Rattus norvegicus, UniProt P31424); assay: mGlu5 assays; type: cell-based; settings: NAM IC50 relative to 8
[3] = molecular target: T1, mGlu5; settings: phenylethynyl pyrimidine series; cited from earlier work
[4] = system: mGlu5; settings: % partial; cited from earlier work

T1 sequence (P31424 21-1203): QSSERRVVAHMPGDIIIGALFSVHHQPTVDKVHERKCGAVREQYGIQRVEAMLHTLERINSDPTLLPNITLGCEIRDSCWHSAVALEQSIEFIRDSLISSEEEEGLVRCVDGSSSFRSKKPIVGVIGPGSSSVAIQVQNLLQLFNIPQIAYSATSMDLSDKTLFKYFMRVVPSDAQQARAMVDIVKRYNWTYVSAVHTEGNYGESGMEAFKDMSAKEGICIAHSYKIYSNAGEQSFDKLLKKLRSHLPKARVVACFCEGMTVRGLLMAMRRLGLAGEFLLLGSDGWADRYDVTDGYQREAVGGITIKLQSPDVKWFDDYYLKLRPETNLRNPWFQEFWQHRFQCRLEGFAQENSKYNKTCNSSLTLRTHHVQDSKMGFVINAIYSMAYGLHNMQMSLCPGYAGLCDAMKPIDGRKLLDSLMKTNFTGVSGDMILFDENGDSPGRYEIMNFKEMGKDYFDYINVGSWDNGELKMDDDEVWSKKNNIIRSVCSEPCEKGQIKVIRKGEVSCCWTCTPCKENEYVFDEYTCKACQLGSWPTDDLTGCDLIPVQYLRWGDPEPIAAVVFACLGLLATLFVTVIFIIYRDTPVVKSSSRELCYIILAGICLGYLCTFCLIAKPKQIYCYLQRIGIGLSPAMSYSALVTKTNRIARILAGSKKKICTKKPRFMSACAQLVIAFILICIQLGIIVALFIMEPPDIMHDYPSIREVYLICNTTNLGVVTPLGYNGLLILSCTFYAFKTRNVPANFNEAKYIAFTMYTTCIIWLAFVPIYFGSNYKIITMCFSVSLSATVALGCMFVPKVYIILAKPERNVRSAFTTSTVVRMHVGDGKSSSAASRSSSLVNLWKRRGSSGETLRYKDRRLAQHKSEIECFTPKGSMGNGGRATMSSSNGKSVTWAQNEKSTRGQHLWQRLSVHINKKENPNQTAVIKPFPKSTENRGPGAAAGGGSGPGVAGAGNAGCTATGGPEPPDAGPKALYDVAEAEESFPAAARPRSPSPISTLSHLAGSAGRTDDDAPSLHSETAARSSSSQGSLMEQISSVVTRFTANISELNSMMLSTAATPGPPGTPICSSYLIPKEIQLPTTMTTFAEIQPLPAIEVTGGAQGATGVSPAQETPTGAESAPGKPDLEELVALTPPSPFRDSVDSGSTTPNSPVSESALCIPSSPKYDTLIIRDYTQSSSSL
T1 sequence (P31424 21-1203): as above

Row | Structure (SMILES) | Pharmacology [1] | also measured
1 | O=C(C1CCC1)N1CCC[C@H](c2nc(-c3cccc(Cl)c3)no2)C1 [(S)-15e] |  | increase in potency over 8 [2]: ~ 41 fold
2 | O=C(C1CCC1)N1CCCC[C@@H]1c1nc(-c2cccc(F)c2)no1 [22b/20e] |  | Pharmacology ([1]; listed as 22b): pure PAM activity
3 | O=C(C1CCCCC1)N1CCCC[C@@H]1c1nc(-c2cccc(F)c2)no1 [22d] | pure PAM activity | 
4 | O=C(C1CCCC1)N1CCCC[C@@H]1c1nc(-c2cccc(F)c2)no1 [22c] | ago-PAMs | 
5 | Cc1cccc(-c2noc([C@H]3CCCCN3C(=O)C3CCCCC3)n2)c1 [21d] | full non-competitive antagonists (NAMs) | 
6 | O=C(C1CC1)N1CCCC[C@@H]1c1nc(-c2cccc(F)c2)no1 [22a] | ago-PAMs | 
7 | Cc1cccc(C#Cc2cncnc2)c1 [compound 3] |  | IC50 [3]: 7.5 nM
8 | Cc1cccc(-c2noc([C@H]3CCCCN3C(=O)C3CCCC3)n2)c1 [21c] | partial antagonists | 
9 | C(#Cc1cncnc1)c1ccccc1 [compound 2] |  | partial antagonism [4]: 71%

Now from value to molecule, other results behind:

Row | Pharmacology [1] | Structure (SMILES) | also measured
10 | low micromolar PAMs | O=C(C1CCC1)N1CCCC1c1nc(-c2cccc(F)c2)no1 (stereo not shown) [23a] | 
11 | low micromolar PAMs | O=C(C1CCC1)N1CCCC1c1nc(-c2ccc(F)cc2)no1 (stereo not shown) [23b] | 
12 | potent mGlu5 PAM | O=C(C1CCC1)N1CCC[C@@H]1c1nc(-c2cccc(F)c2)no1 [(R)-23a] | 
13 | very weak PAM | O=C(C1CCC1)N1CCC[C@H]1c1nc(-c2cccc(F)c2)no1 [(S)-23a] | 
